Where a name gives a salt, the structure may show the parent alone.
Tests used:
NaV1.5 = NaV1.5 (Homo sapiens (Human), UniProt Q14524); assay: Sodium Influx Assay (Flux), NaV1.5; conditions: read-out: Flux NaV1.5 IC50; Trex HEK293 cells, ANG2 dye, inactivated state
NaV1.6 = NaV1.6 (Homo sapiens (Human), UniProt Q9UQD0); assay: Sodium Influx Assay (Flux), NaV1.6; assay type: cell-based; conditions: Trex HEK293 cells, ANG2 dye, inactivated state;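 also: Tetracycline-induced cells, compounds applied for one hour at room temperature with modulators holding channels open, IC50 from percent inhibition of sodium influx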
NaV1.1 = NaV1.1 (Homo sapiens (Human), UniProt P35498); assay: Sodium Influx Assay (Flux), NaV1.1; assay type: cell-based; conditions: Trex HEK293 cells, ANG2 dye, inactivated state;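 also: channels co-expressed with human β1 subunit and held open by modulators, cells exposed to compounds for one hour at room temperature, IC50 from percent inhibition of influx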

Chain of NaV1.5 (Q14524 other isoform, or with tags, fused parts or gaps): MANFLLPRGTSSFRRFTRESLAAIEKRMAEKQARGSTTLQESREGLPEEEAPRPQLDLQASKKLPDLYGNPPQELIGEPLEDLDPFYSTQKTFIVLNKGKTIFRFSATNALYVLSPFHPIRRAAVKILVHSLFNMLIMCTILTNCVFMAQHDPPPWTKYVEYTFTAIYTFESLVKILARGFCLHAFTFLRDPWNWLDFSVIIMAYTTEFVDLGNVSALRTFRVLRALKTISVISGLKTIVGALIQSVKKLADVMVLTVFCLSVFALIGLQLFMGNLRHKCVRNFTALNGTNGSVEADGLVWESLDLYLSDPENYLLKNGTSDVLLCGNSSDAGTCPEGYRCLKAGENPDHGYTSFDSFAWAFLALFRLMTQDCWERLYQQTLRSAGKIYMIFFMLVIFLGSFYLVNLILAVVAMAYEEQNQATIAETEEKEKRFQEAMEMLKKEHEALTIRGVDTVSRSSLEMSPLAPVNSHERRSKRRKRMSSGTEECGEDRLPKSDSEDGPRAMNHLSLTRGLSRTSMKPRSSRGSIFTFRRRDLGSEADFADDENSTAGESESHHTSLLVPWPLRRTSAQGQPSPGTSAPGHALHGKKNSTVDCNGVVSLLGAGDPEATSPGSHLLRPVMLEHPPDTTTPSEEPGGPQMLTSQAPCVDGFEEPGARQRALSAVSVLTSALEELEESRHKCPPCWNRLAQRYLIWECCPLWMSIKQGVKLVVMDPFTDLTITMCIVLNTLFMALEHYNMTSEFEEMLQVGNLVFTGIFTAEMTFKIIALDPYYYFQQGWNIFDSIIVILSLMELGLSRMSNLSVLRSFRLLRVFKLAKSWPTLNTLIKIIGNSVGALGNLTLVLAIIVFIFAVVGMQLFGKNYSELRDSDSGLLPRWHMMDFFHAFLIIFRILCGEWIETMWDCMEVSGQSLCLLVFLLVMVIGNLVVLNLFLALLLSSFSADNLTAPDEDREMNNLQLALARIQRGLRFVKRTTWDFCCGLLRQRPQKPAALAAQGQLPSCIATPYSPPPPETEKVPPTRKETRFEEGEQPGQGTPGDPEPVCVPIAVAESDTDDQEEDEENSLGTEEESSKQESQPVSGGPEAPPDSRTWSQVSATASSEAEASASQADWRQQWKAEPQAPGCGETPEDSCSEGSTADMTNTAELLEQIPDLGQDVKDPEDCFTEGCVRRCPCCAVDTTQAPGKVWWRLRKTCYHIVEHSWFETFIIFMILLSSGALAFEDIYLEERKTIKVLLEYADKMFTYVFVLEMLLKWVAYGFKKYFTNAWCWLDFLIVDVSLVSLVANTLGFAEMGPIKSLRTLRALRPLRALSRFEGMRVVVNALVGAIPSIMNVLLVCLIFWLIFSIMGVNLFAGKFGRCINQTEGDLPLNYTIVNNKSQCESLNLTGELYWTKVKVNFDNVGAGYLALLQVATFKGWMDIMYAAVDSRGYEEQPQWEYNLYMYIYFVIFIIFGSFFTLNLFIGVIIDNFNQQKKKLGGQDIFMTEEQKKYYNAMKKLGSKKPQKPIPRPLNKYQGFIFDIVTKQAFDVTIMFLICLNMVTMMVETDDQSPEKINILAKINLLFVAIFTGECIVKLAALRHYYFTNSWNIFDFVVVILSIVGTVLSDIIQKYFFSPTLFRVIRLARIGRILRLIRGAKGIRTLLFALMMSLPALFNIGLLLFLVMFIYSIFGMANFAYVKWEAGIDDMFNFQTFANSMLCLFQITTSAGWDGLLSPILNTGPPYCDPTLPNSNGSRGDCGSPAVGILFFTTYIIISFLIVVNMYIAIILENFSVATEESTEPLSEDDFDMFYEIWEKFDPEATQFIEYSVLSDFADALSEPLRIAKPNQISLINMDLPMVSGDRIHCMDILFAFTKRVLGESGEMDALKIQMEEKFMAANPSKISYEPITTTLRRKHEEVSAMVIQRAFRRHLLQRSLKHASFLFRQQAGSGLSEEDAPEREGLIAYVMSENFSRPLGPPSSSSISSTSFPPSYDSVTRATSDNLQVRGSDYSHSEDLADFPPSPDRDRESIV

SMILES	IC50 (NaV1.5) [µM]	IC50 (NaV1.6) [µM]	IC50 (NaV1.1) [µM]
C[C@H](Nc1cc(F)c(S(=O)(=O)Nc2cscn2)cc1Cl)c1cc(OC2COC2)ccc1F [Example 235, (S)-5-chloro-2-fluoro-4-((1-(2-fluoro-5-(oxetan-3-yloxy)phenyl)ethyl)amino)-N-(thiazol-4-yl)benzenesulfonamide]	30	3.02	22.4
C[C@H](Nc1cc(F)c(S(=O)(=O)Nc2cscn2)cc1Cl)c1cc(OCC2COC2)ccc1F [Example 236, (S)-5-chloro-2-fluoro-4-((1-(2-fluoro-5-(oxetan-3-ylmethoxy)phenyl)ethyl)amino)-N-(thiazol-4-yl)benzenesulfonamide]	30	3.02	30
C[C@H](Nc1cc(F)c(S(=O)(=O)Nc2cscn2)cc1Cl)c1cc(OCC2(C)COC2)ccc1F [Example 237, (S)-5-chloro-2-fluoro-4-((1-(2-fluoro-5-((3-methyloxetan-3-yl)methoxy)phenyl)ethyl)amino)-N-(thiazol-4-yl)benzenesulfonamide]	30	3.54	12.5
C[C@H](Nc1ccc(S(=O)(=O)Nc2cscn2)cc1C#N)c1ccccc1F [Example 239, (S)-3-cyano-4-((1-(2-fluorophenyl)ethyl)amino)-N-(thiazol-4-yl)benzenesulfonamide]	28.9	1.65	27
C[C@H](Nc1cc(F)c(S(=O)(=O)Nc2ccon2)c(F)c1)c1cc(F)ccc1F [Example 240, (S)-4-((1-(2,5-difluorophenyl)ethyl)amino)-2,6-difluoro-N-(isoxazol-3-yl)benzenesulfonamide]	30	3.17	30
O=S(=O)(Nc1ccncn1)c1cc(Cl)c(NC2(c3cc(F)ccc3F)CC2)cc1F [Example 241, 5-chloro-4-((1-(2,5-difluorophenyl)cyclopropyl)amino)-2-fluoro-N-(pyrimidin-4-yl)benzenesulfonamide]	30	2.36	26.8
O=S(=O)(Nc1ccncn1)c1cc(Cl)c(NC2(c3ccccc3F)CC2)cc1F [Example 242, 5-chloro-2-fluoro-4-((1-(2-fluorophenyl)cyclopropyl)amino)-N-(pyrimidin-4-yl)benzenesulfonamide]	30	1.95	30
Cc1cc(NS(=O)(=O)c2cc(Cl)c(N[C@@H](C)c3ccccc3Cl)cc2F)ncn1 [Example 244, (S)-5-chloro-4-((1-(2-chlorophenyl)ethyl)amino)-2-fluoro-N-(6-methylpyrimidin-4-yl)benzenesulfonamide]	22.2	4.28	30
C[C@H](Nc1cc(F)c(S(=O)(=O)Nc2ccnc(C(F)(F)F)n2)cc1Cl)c1ccccc1Cl [Example 245, (S)-5-chloro-4-((1-(2-chlorophenyl)ethyl)amino)-2-fluoro-N-(2-(trifluoromethyl)pyrimidin-4-yl)benzenesulfonamide]	6.55	5.38	10.5
COC1CN(Cc2cccc(F)c2CNc2cc(F)c(S(=O)(=O)Nc3cscn3)cc2Cl)C1 [Example 248, 5-chloro-2-fluoro-4-((2-fluoro-6-((3-methoxyazetidin-1-yl)methyl)benzyl)amino)-N-(thiazol-4-yl)benzenesulfonamide 2,2,2-trifluoroacetate]	26.5	0.431	21.4
CN(C)Cc1cccc(F)c1CNc1cc(F)c(S(=O)(=O)Nc2cscn2)cc1Cl [Example 249, 5-chloro-4-((2-((dimethylamino)methyl)-6-fluorobenzyl)amino)-2-fluoro-N-(thiazol-4-yl)benzenesulfonamide 2,2,2-trifluoroacetate]	30	0.163	30
O=S(=O)(Nc1cscn1)c1cc(Cl)c(NCc2c(F)cccc2CN2CCOCC2)cc1F [Example 250, 5-chloro-2-fluoro-4-((2-fluoro-6-(morpholinomethyl)benzyl)amino)-N-(thiazol-4-yl)benzenesulfonamide]	30	9.06	23.6
O=S(=O)(Nc1cscn1)c1cc(Cl)c(NCc2c(F)cccc2CN2CCC(F)(F)CC2)cc1F [Example 251, 5-chloro-4-((2-((4,4-difluoropiperidin-1-yl)methyl)-6-fluorobenzyl)amino)-2-fluoro-N-(thiazol-4-yl)benzenesulfonamide]	3.35	3.71	8.68
O=S(=O)(Nc1cscn1)c1c(F)cc(NCc2c(F)cccc2CN2CC3(CCC3)C2)cc1F [Example 252, 4-((2-((2-azaspiro[3.3]heptan-2-yl)methyl)-6-fluorobenzyl)amino)-2,6-difluoro-N-(thiazol-4-yl)benzenesulfonamide formate]	12.6	0.036	9.96
C[C@H](Nc1cc(F)c(S(=O)(=O)Nc2cscn2)cc1Cl)c1cccc(CN(C)C)c1 [Example 253, (S)-5-chloro-4-((1-(3-((dimethylamino)methyl)phenyl)ethyl)amino)-2-fluoro-N-(thiazol-4-yl)benzenesulfonamide formate]	13.1	2.1	20
C[C@@H](Nc1cc(F)c(S(=O)(=O)Nc2cscn2)cc1Cl)c1cccc(CN(C)C)c1 [Example 254, (R)-5-chloro-4-((1-(3-((dimethylamino)methyl)phenyl)ethyl)amino)-2-fluoro-N-(thiazol-4-yl)benzenesulfonamide formate]	3.62	9.44	14.1
C[C@H](Nc1cc(F)c(S(=O)(=O)Nc2cscn2)cc1Cl)c1cc(CN2CCCCC2)ccc1F [Example 256, (S)-5-chloro-2-fluoro-4-((1-(2-fluoro-5-(piperidin-1-ylmethyl)phenyl)ethyl)amino)-N-(thiazol-4-yl)benzenesulfonamide formate]	6.97	1.22	8.82
O=S(=O)(Nc1ccon1)c1cc(Cl)c(NCc2ccccc2CN2CCC2)cc1F [Example 258, 4-((2-(azetidin-1-ylmethyl)benzyl)amino)-5-chloro-2-fluoro-N-(isoxazol-3-yl)benzenesulfonamide]	30	3.69	30
O=S(=O)(Nc1ccon1)c1c(F)cc(NCc2ccccc2CN2CCC2)cc1F [Example 259, 4-((2-(azetidin-1-ylmethyl)benzyl)amino)-2,6-difluoro-N-(isoxazol-3-yl)benzenesulfonamide]	30	1.37	29.2
O=S(=O)(Nc1cccnn1)c1cc(Cl)c(NCc2c(F)cccc2CN2CCC2)cc1F [Example 260, 4-((2-(azetidin-1-ylmethyl)-6-fluorobenzyl)amino)-5-chloro-2-fluoro-N-(pyridazin-3-yl)benzenesulfonamide]	30	1.88	30
O=S(=O)(Nc1cscn1)c1cc(Cl)c(NCc2ccccc2CCN2CCC2)cc1F [Example 261, 4-((2-(2-(azetidin-1-yl)ethyl)benzyl)amino)-5-chloro-2-fluoro-N-(thiazol-4-yl)benzenesulfonamide formate]	26.3	0.146	28.9
O=S(=O)(Nc1cscn1)c1cc(Cl)c(NCc2cc(CCN3CCC3)ccc2F)cc1F [Example 262, 4-((5-(2-(azetidin-1-yl)ethyl)-2-fluorobenzyl)amino)-5-chloro-2-fluoro-N-(thiazol-4-yl)benzenesulfonamide formate]	7.32	1.42	8.29
O=S(=O)(Nc1cscn1)c1cc(Cl)c(NCc2cc(CCN3CC(F)C3)ccc2F)cc1F [Example 263, 5-chloro-2-fluoro-4-((2-fluoro-5-(2-(3-fluoroazetidin-1-yl)ethyl)benzyl)amino)-N-(thiazol-4-yl)benzenesulfonamide formate]	4.78	1.02	7.71
O=S(=O)(Nc1cscn1)c1cc(Cl)c(N[C@H]2C[C@H](N3CCC3)c3ccccc32)cc1F [Example 264, 4-(((1S,3S)-3-(azetidin-1-yl)-2,3-dihydro-1H-inden-1-yl)amino)-5-chloro-2-fluoro-N-(thiazol-4-yl)benzenesulfonamide formate]	30	30	30
C[C@H](Nc1cc(F)c(S(=O)(=O)Nc2ncc(Cl)s2)cc1Cl)c1ccccc1F [Example 267, (S)-5-chloro-2-fluoro-4-((1-(2-fluorophenyl)ethyl)amino)-N-(5-chlorothiazol-2-yl)benzenesulfonamide]	6.96	0.959	3.58
Cc1cc(N[C@@H](C)c2ccccc2F)c(Cl)cc1S(=O)(=O)Nc1nccs1 [Example 269, (S)-5-chloro-4-((1-(2-fluorophenyl)ethyl)amino)-2-methyl-N-(thiazol-2-yl)benzenesulfonamide]	6.72	0.584	2.78
CN(C)Cc1ccccc1CNc1cc(F)c(S(=O)(=O)Nc2cscn2)c(F)c1 [Example 271, 4-((2-((dimethylamino)methyl)benzyl)amino)-2,6-difluoro-N-(thiazol-4-yl)benzenesulfonamide]	30	0.448	30
CC[C@H](Nc1cc(F)c(S(=O)(=O)Nc2ccncn2)c(F)c1)c1cc(F)ccc1Cl [Example 276, (S)-4-((1-(2-chloro-5-fluorophenyl)propyl)amino)-2,6-difluoro-N-(pyrimidin-4-yl)benzenesulfonamide]	24.3	0.265	3.6
C[C@@H](c1cccc(F)c1CNc1cc(F)c(S(=O)(=O)Nc2cscn2)c(F)c1)N1CCC1 [Example 278, (S)-4-((2-(1-(azetidin-1-yl)ethyl)-6-fluorobenzyl)amino)-2,6-difluoro-N-(thiazol-4-yl)benzenesulfonamide formate]	30	0.187	14.2

Reference: patent US11174268B2, “Benzenesulfonamide compouds and their use as therapeutic agents” (Xenon Pharmaceuticals Inc., priority 2016, dated 2021)
